Assays:
[1] = Partition coefficient (logP); type: physicochemical; details: octanol/water
Tenebrio molitor = experiment: Juvenile hormone mimetic activity in Tenebrio molitor (yellow mealworm); type: functional; design: unit not given here

logP [1] | logP ([1]; read-out: logP) | SMILES | pI50 (Tenebrio molitor)
– | 6.77 | CSC(C)(C)CCCC(C)C/C=C/C(C)=C/C(=O)OC(C)C (stereo not given) | 3.77
– | 6.19 | CC(/C=C/CC(C)CCCC(C)C)=C\C(=O)NCC(C)C (stereo not given) | 0.62
– | 7.03 | COC(C)(C)CCCC(C)C/C=C/C(C)=C/C(=O)OCCC(C)C (stereo not given) | 0.81
– | 6.36 | COC(C)(C)CCCC(C)C/C=C/C(C)=C/C(=O)OC(C)(C)C (stereo not given) | 3.81
– | 5.53 | C=CCOC(=O)/C=C(C)/C=C/CC(C)CCCC(C)(C)OC (stereo not given) | 1.41
– | 5.07 | CCC(=O)/C=C(C)/C=C/CC(C)CCCC(C)(C)OC (stereo not given) | 5.78
– | 7.97 | C=CCSC(=O)/C=C(C)/C=C/CC(C)CCCC(C)C (stereo not given) | 3.26
– | 5.65 | CCNC(=O)/C=C(C)/C=C/CC(C)CCCC(C)(C)C (stereo not given) | 4.45
– | 7.69 | CCC(C)OC(=O)/C=C(C)/C=C/CC(C)CCCC(C)C (stereo not given) | 3.87
– | 5.94 | C=CC(C)OC(=O)/C=C(C)/C=C/CC(C)CCCC(C)(C)OC (stereo not given) | 4.39
– | 3.52 | COC(C)(C)CCCC(C)C/C=C/C(C)=C/C(N)=O (stereo not given) | 0.05
– | 6.6 | CC(C)=CCCC(C)C/C=C/C(C)=C/C(=O)OC(C)C (stereo not given) | 3.67
– | 4.04 | CCN(CC)C(=O)/C=C(C)/C=C/CC(C)CCC1OC1(C)C (stereo not given) | 3.85
– | 4.34 | CCOC(=O)/C=C(C)/C=C/CC(C)CCC(OC)C(C)(C)OC (stereo not given) | 1.31
– | 5 | COC(=O)/C=C(C)/C=C/CC(C)CCCC(C)(C)OC (stereo not given) | 0.89

The remaining lines, values behind:

SMILES | logP [1] | logP ([1]; read-out: logP) | pI50 (Tenebrio molitor)
COC(C)(C)CCCC(C)C/C=C/C(C)=C/C(=O)NC1CC1 (stereo not given) | 4.04 | – | 3.74
COC(C)(C)CCCC(C)C/C=C/C(C)=C/C(=O)O (stereo not given) | – | 4.79 | –
CCOC(=O)/C=C(C)/C=C/CC(C)CCC(OC)C(C)C (stereo not given) | – | 5.54 | 2.54
COC(C)(C)CCCC(C)C/C=C/C(C)=C/C(=O)OC(C)C (stereo not given) | – | 5.95 | –
CCSC(=O)/C=C(C)/C=C/CC(C)CCCC(C)(C)C (stereo not given) | – | 8.39 | –
CC(/C=C/CC(C)CCCC(C)(C)C)=C\C(=O)OC(C)C (stereo not given) | – | 7.56 | –
C=CCSC(=O)/C=C(C)/C=C/CC(C)CCCC(C)(C)OC (stereo not given) | – | 6.77 | 2.06
C=CCOC(=O)/C=C(C)/C=C/CC(C)CCCC(C)C (stereo not given) | – | 6.73 | 3.51
CCSC(=O)/C=C(C)/C=C/CC(C)CCCC(C)(C)OC (stereo not given) | – | 6.78 | 3.49
CCCCOC(=O)/C=C(C)/C=C/CC(C)CCCC(C)(C)OC (stereo not given) | – | 6.62 | 0.93
CC(/C=C/CC(C)CCCC(C)C)=C\C(=O)Oc1ccccc1 (stereo not given) | – | 7.67 | 1.5
CC(/C=C/CC(C)CCCC(C)(C)OC=O)=C\C(=O)OC(C)C (stereo not given) | – | 5.4 | 4.43
COC(C)(C)CCCC(C)C/C=C/C(C)=C/C(=O)OC1CC1 (stereo not given) | – | 5.71 | 2.89
CCOC(C)(C)CCCC(C)C/C=C/C(C)=C/C(=O)OC(C)C (stereo not given) | – | 6.49 | 4.51
CC(/C=C/CC(C)CCCC(C)(C)OC(C)C)=C\C(=O)OC(C)C (stereo not given) | – | 6.9 | 3.01
CCOC(=O)/C=C(C)/C=C/CC(C)CCC=C(C)C (stereo not given) | – | 6.19 | 2.38
COC(=O)/C=C(C)/C=C/CC(C)CCCC(C)C (stereo not given) | – | 6.2 | 2.2
CCSC(=O)/C=C(C)/C=C/CC(C)CCCC(C)(C)OC(C)=O (stereo not given) | – | 6.81 | 2.83
CCC(C)C(=O)/C=C(C)/C=C/CC(C)CCCC(C)(C)OC (stereo not given) | – | 6.02 | 3.54
CC(/C=C/CC(C)CCCC(C)C)=C\C(=O)N(C)C (stereo not given) | – | 4.94 | 3.7
CC#CCOC(=O)/C=C(C)/C=C/CC(C)CCCC(C)C (stereo not given) | – | 6.4 | 2.12
CCOC(=O)/C=C(C)/C=C/CC(C)CCCC(C)C (stereo not given) [HYDROPRENE] | – | 6.74 | –
C#CCOC(=O)/C=C(C)/C=C/CC(C)CCCC(C)C (stereo not given) [KINOPRENE] | – | 5.86 | –
